Measured values from PubChem BioAssay (NCI).
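Grown in 96-well plates, cells were treated for 48 hours with each compound at five concentrations. Insufficient inhibition: endpoint recorded as highest concentration tested. TGI: total growth inhibition.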

Experiments:
Assay in all cases: inhibition of tumour cell growth, NCI panel, 48 h
NCI-H23 lung = system: NCI-H23 lung
SW-620 colon = system: SW-620 colon
HCC-2998 colon = system: HCC-2998 colon
SF-539 CNS = system: SF-539 CNS
K-562 leukemia = system: K-562 leukemia
LOX IMVI melanoma = system: LOX IMVI melanoma
OVCAR-3 ovarian = system: OVCAR-3 ovarian
OVCAR-4 ovarian = system: OVCAR-4 ovarian
IGROV1 ovarian = system: IGROV1 ovarian
TK-10 renal = system: TK-10 renal
SK-OV-3 ovarian = system: SK-OV-3 ovarian
UO-31 renal = system: UO-31 renal
SF-295 CNS = system: SF-295 CNS
OVCAR-8 ovarian = system: OVCAR-8 ovarian
HOP-62 NSCLC = system: HOP-62 NSCLC
SK-MEL-2 melanoma = system: SK-MEL-2 melanoma
SK-MEL-28 melanoma = system: SK-MEL-28 melanoma
MOLT-4 leukemia = system: MOLT-4 leukemia
OVCAR-5 ovarian = system: OVCAR-5 ovarian
HOP-92 NSCLC = system: HOP-92 NSCLC

Measured: TGI

CCOC(=O)c1ccc(N2C(=O)/C(=C/c3ccc(N(CCC#N)CCC#N)cc3)N=C2c2cc([N+](=O)[O-])ccc2Cl)cc1
> 100 µM: all assays above

COC1CCC(O)C(CO)O1 (stereo not given)
47.6 µM: K-562 leukemia
61.2 µM: IGROV1 ovarian
65.4 µM: LOX IMVI melanoma
> 100 µM: all other assays above

NCC(=O)N[C@H]1c2ccsc2/C(=N/O)[C@H]1O
> 100 µM: all assays above
